Like-named read-outs stand apart in the source and are kept apart here.
Legend:
THP-1 cells [1] = experiment: Cytokine release (TNF-α, MCP-1, IL-6) by LPS-stimulated THP-1 macrophages after fatty acid incubation; type: cell-based; conditions: compared to control macrophages; for Cytokine release with increasing concentration of fatty acids: 50 to 100 μM; for Inflammatory cytokine release (TNF-α, MCP-1, IL-6): 24 h fatty acid (50 and 100 μM), then 24 h LPS
Protocol: (§1) THP-1 cells were maintained in RPMI 1640+2 mM L-Glutamine, 10 mM HEPES, 1 mM sodium pyruvate, 4500 mg/L glucose, and 1500 mg/L sodium bicarbonate; supplemented with 3.5 μL/L of 2-mercaptoethanol and 10% fetal bovine serum (FBS). Cell line was maintained in 75 cm^2 filtered cap flasks in a 37° C. incubator with 5% CO2. THP-1 cells were seeded in 24 well plates at 5×10^5 cells/mL using 600 μL/well and allowed to differentiate into macrophages (MΦ) for 72 h with phorbol 12-myristate 13-acetate (PMA) at a final concentration of 50 ng/mL.
Experiment 1: Prior to incubation with individual fatty acids, the cells were starved for 8 h in a 2% lipo-free FBS RPMI medium. Individual fatty acids were added in duplicate into the 24 well plate at two concentrations, 50 μM and 100 μM. Every assay was cultured in three runs with duplicates in each run pooled. After incubation for 24 h with fatty acids the MΦ were scraped off the plates and fatty acids were isolated as described in the ‘Animal Tests’ portion of this Example. The fatty acid profiles of the MΦ were determined as previously described (Wang, et al., 2010, Clin. Nutr., DOI: 10.1016/j.clnu.2013.04.009).
(§2) Experiment 2: Previously differentiated MΦ were incubated with fatty acids as described in ‘Experiment 1’ for 24 hours. At the 24 h time point the cells were then stimulated with lipopolysaccharide from E. coli 0111:B4 for another 24 hours. The plates were centrifuged at 1200×g for 5 minutes and supernatant was then collected and analyzed for cytokines. The MΦ were scraped off the plates and fatty acids were isolated as described in the ‘Animal Portion’. The fatty acid profiles of the MΦ were determined as previously described (Wang, et al., 2010, Clin. Nutr., DOI: 10.1016/j.clnu.2013.04.009).
A linear mixed effects model was used in R, lme in the nlme package, for estimating treatment effects on cytokine production in LPS stimulated THP-1 cells. The fixed effects fit were treatment, FA concentration, and when significant LPS concentration was fit as a covariate, the plate cells were cultured on nested within run was fit as a random effect. Least squares means were analyzed as outlined above and pairwise comparisons were made between treatments for FA concentration, or where significant LPS concentration.
The objective of this study was to determine if docosapentaenoic acid n-3 (DPAn3) enrichment of macrophages (MΦ) changed their inflammatory response relative to saturated (S), mono-unsaturated (MU), and other poly-unsaturated (PU) fatty acids (FA). Differentiated THP-1 cells were incubated with one of 11 FA (50 and 100 μM) of varying degrees of unsaturation or no FA for 24 h prior to 24 h of stimulation with lipopolysaccharide from E. coli. Fatty acids were collected from MΦ without stimulation to determine the fatty acid profiles. Media was collected from MΦ post-stimulation and probed for prostaglandin E2, and cytokines, including tumor necrosis factor-α, monocyte chemoattractant protein-1, and interleukin-6. Prostaglandin E2 production was greater (P<0.05) for AA than all other FA, and omega-3 PUFA decreased (P<0.01) PGE2 compared to n6 PUFA and all other FA.

TNF-α [2] = experiment: TNF-α concentration in adipose tissue of mice fed omega-3 products; type: in vivo
Source text: (§3) 48 male LDLr−/− mice (8-10 weeks of age, ˜20 g) were obtained from Jackson Laboratories (stock #2207) and allowed to acclimate to the cages, room, and feeding design for 12 days. After the acclimation period mice were weighed and randomly assigned to one of six treatments. Mice were fed an isolipid (20% total fatty acids w/w), isonitrogenous, and 0.2% cholesterol (w/w) diet, which is considered atherogenic (Ain76, 58TQ TestDiet®) as a base diet. This base diet was formulated to meet or exceed all nutrient and energy requirements for a growing mouse. The treatments were added to the base diet (0.76% w/w of the total diet) and was made once at the beginning of the study, separated into weekly aliquots, stored at −80° C., allowed to thaw at 4° C. for 2 days prior to feeding, and stored at 4° C. until fed. A sample from each weekly aliquot was collected, composited, and archived for fatty acid analysis at a later date. The treatments were as follows: (1) Negative control diet, 3.5% of the total fatty acids were replaced with milk fat (the only source of fat in the base diet), (2) 3.5% of the total fatty acids were replaced with purified ethyl esters of DHA, (3) 3.5% of the total fatty acids were replaced with purified ethyl esters of DPAn3, (4) 3.5% of the total fatty acids were replaced with purified ethyl esters of EPA, (5) 3.5% of the total fatty acids were replaced with omega-3 fatty acids from Lovaza® (GlaxoSmithKline), and (6) 3.5% of the total fatty acids were replaced with omega-3 fatty acids from ΩmegaActiv® DPA 5000 (Omega Protein Inc., Houston, Tex.; Table 1).
TNF-α concentration in adipose tissue of mice fed with different omega-3 products

LDLr−/− mice [3] = experiment: Serum glucose of LDLr−/− mice fed an atherogenic diet; type: in vivo; conditions: week 20
Source text: (§4) 48 male LDLr−/− mice (8-10 weeks of age, ˜20 g) were obtained from Jackson Laboratories (stock #2207) and allowed to acclimate to the cages, room, and feeding design for 12 days. After the acclimation period mice were weighed and randomly assigned to one of six treatments. Mice were fed an isolipid (20% total fatty acids w/w), isonitrogenous, and 0.2% cholesterol (w/w) diet, which is considered atherogenic (Ain76, 58TQ TestDiet®) as a base diet. This base diet was formulated to meet or exceed all nutrient and energy requirements for a growing mouse. The treatments were added to the base diet (0.76% w/w of the total diet) and was made once at the beginning of the study, separated into weekly aliquots, stored at −80° C., allowed to thaw at 4° C. for 2 days prior to feeding, and stored at 4° C. until fed. A sample from each weekly aliquot was collected, composited, and archived for fatty acid analysis at a later date. […]
(§5) Mouse body weights were recorded once weekly in conjunction with cage changes. Blood serum lipid profiles were analyzed on blood samples from the mice before (subset of 6 mice), 10 weeks, and 20 weeks relative to initiation of dietary treatments. […] Total lipid content was measured using the procedure outline by Folch, et al. (1957) J. Biol. Chem., 226:497-509, prior to cholesterol assessment. Total cholesterol, free cholesterol, and cholesterol ester were quantified as previously described (Wang, et al., 2010, Clin. Nutr., DOI: 10.1016/j.clnu.2013.04.009).
Average daily feed intake for the mice was cut into quartiles in order to assign a feed consumption class. […] Least squares means were calculated using the lsmeans package for all blood lipid profiles and a general linear hypothesis test, using glht in the multcomp package, was utilized for specified contrasts, control vs. the average of all omega-3 containing diets. […]

LDLr−/− mice [4] = experiment: Lipid and cholesterol (TC, FC, CE) in aortas of LDLr−/− mice fed an atherogenic diet; type: in vivo; conditions: supplement 0.76% w/w of the diet
Source text: as §4, §5
An analysis of variance model was used in R, aov in the stats package, for estimating treatment effects on cholesterol deposition in mouse aortas. Least squares means and contrasts were analyzed as outlined above. […]

TNF-α [5] = experiment: Fluorescence intensity (relative) of brain hippocampus, TNF-α; type: in vivo, mice; conditions: control = 1
Source text: as §3, with “1). […]” for “1).”

MCP-1 = experiment: Fluorescence intensity (relative) of brain microvessel, MCP-1; type: in vivo, mice; conditions: control = 1.00
Source text: as §3, with “1). […]” for “1).”

TIMP2 = experiment: Fluorescence intensity (relative) of brain hippocampus, TIMP2; type: in vivo, mice; conditions: control = 1
Source text: as §3, with “1). […]” for “1).”

IL-8 [6] = experiment: Fluorescence intensity (relative) of brain microvessel, IL-8; type: in vivo, mice; conditions: control = 1.00
Source text: as §3, with “1). […]” for “1).”

LDLr−/− mice [7] = experiment: Serum lipid profile of LDLr−/− mice fed an atherogenic diet; type: in vivo; conditions: week 20
Source text: as §3
Mouse body weights were recorded once weekly in conjunction with cage changes. Blood serum lipid profiles were analyzed on blood samples from the mice before (subset of 6 mice), 10 weeks, and 20 weeks relative to initiation of dietary treatments. Three to five days prior to the end of the study each mouse was administered an intraperitoneal injection of 1.0 mL thioglycollate broth (4.05 g/dL) to elicit peritoneal macrophages. The peritoneal cells centrifuged then cultured in RPMI 1640 (+2 mM L-glutamine, +10 mM HEPES, +1 mM sodium pyruvate, +4500 mg/L glucose, +1500 mg/L sodium bicarbonate) on tissue culture plates (size) which allowed for adhesion of the macrophages. Plates where then vigorously washed to ensure proper macrophage isolation. Macrophages were scraped off the plates and aliquotted into a glass tube for fatty acid extraction, which was then performed via a modified Folch method. The heart and aorta were isolated from each mouse and immediately frozen in liquid nitrogen for later dissection. Aortic arches were dissected from the aortic root to the abdominal aorta using a microscope. Total lipid content was measured using the procedure outline by Folch, et al. (1957) J. Biol. Chem., 226:497-509, prior to cholesterol assessment. Total cholesterol, free cholesterol, and cholesterol ester were quantified as previously described (Wang, et al., 2010, Clin. Nutr., DOI: 10.1016/j.clnu.2013.04.009).
Average daily feed intake for the mice was cut into quartiles in order to assign a feed consumption class. A linear mixed effects model was used in R, lme in the nlme package, for estimating treatment effects on blood lipid profiles in mice. The fixed effects fit were treatment, and week of study, animal nested within treatment was fit as a random effect. Least squares means were calculated using the lsmeans package for all blood lipid profiles and a general linear hypothesis test, using glht in the multcomp package, was utilized for specified contrasts, control vs. the average of all omega-3 containing diets. Because Lovaza® is composed of high and almost equal levels of EPA and DHA we also contrasted the diet supplemented with Lovaza® to the average of the diets supplemented with EPA and DHA alone. Pairwise comparisons were made between time of blood analysis, and between treatments at each individual time frame.

IL-8 [8] = experiment: Fluorescence intensity (relative) of brain hippocampus, IL-8; type: in vivo, mice; conditions: control = 1
Source text: as §3, with “1). […]” for “1).”

THP-1 cells [9] = experiment: Prostaglandin E2 production by LPS-stimulated THP-1 macrophages after fatty acid incubation; type: cell-based; conditions: 24 h fatty acid (50 and 100 μM), then 24 h LPS; compared to other FA
Protocol: as §1, §2
The objective of this study was to determine if docosapentaenoic acid n-3 (DPAn3) enrichment of macrophages (MΦ) changed their inflammatory response relative to saturated (S), mono-unsaturated (MU), and other poly-unsaturated (PU) fatty acids (FA). […]

[10] = test system: murine peritoneal macrophages; conditions: cited from earlier work

Structure (SMILES) | Cytokine release with increasing concentration of fatty acids (THP-1 cells [1]) | Inflammatory cytokine release (TNF-α, MCP-1, IL-6) (THP-1 cells [1]) | TNF-α Concentration (TNF-α [2]) | Glucose concentration in serum (LDLr−/− mice [3]) | Aorta lipid (LDLr−/− mice [4]) | TNF-α fluorescence intensity (relative) (TNF-α [5]) | MCP-1 fluorescence intensity (relative) (MCP-1) | TIMP2 fluorescence intensity (relative) (TIMP2) | IL-8 fluorescence intensity (relative) (IL-8 [6]) | Serum LDL cholesterol (LDLr−/− mice [7]) | Serum total cholesterol (LDLr−/− mice [7]) | IL-8 fluorescence intensity (relative) (IL-8 [8]) | Prostaglandin E2 production (THP-1 cells [9]) | TNF-α production ([10]; AA at 2-5 μM) | TNF-α production ([10]; AA at concentrations as low as 1 μM)
CCCCCCCCCCCCCCCC(=O)O [C16:0] | did not change, or increased | did not change |  |  |  |  |  |  |  |  |  |  |  |  | 
CC/C=C\C/C=C\C/C=C\C/C=C\C/C=C\CCCC(=O)O [EPA, eicosapentaenoic acid] |  |  | 0.58 pg/μg protein | 198.65 mg/dL | 29.93% | 0.31 | 0.96 | 0.63 | 0.93 | 562.07 mg/dL | 663.37 mg/dL | 0.72 |  |  | 
CCCCCCCCCCCCCCCCCC(=O)O [C18:0] | did not change, or increased | did not change |  |  |  |  |  |  |  |  |  |  |  |  | 
CC/C=C\C/C=C\C/C=C\C/C=C\C/C=C\C/C=C\CCC(=O)O [DHA, docosahexaenoic acid] |  |  | 0.82 pg/μg protein | 172.58 mg/dL | 36.38% | 0.29 | 0.93 | 0.23 | 0.86 | 495.51 mg/dL | 726.86 mg/dL | 0.46 |  |  | 
CCCCCCCC/C=C\CCCCCCCC(=O)O [oleic acid] | did not change, or increased | did not change |  |  |  |  |  |  |  |  |  |  |  |  | 
CCCCC/C=C\C/C=C\C/C=C\C/C=C\CCCC(=O)O [AA, arachidonic acid] |  | decreased |  |  |  |  |  |  |  |  |  |  | greater | completely inhibited | decreased
CC/C=C\C/C=C\C/C=C\C/C=C\C/C=C\CCCCCC(=O)O [DPA, docosapentaenoic acid] |  |  | 0.41 pg/μg protein | 166.23 mg/dL | 29.52% | 0.28 | 0.92 | 0.17 | 0.96 | 563.45 mg/dL | 692.98 mg/dL | 0.70 |  |  | 

— patent US20150133554A1, “PURIFICATION OF DPA ENRICHED OIL” (Omega Protein Corporation, priority 2013, published 2015)
